Experimental data reported in US7651979B2, “Coordination complexes, and methods for preparing by combinatorial methods, assaying and using the same” (priority 2000, dated 2010).

Tests used:
[1] = tested on: BlaM HeLa cells; type: cell-based, human; conditions: for response of independently synthesized compounds on the BlaM HeLa assay: pure compounds made by non-combinatorial means; for ratio of green to blue fluorescence with increasing concentration: increasing concentrations, FIG. 7, twenty-eight hours
Excerpt: Another example of a subject assay is termed the CCF2/AM assay. The CCF2/AM dye is an effective assay for the presence of β-lactamase, and thus may be used as a sensor for its transcription. See, for example, U.S. Pat. No. 5,955,604 and WO 9630540. This screen in based on a cellular response that is relatively unique to cisplatin. […] See Sandman et al., Chem. Bio. 6:541-51 (1999). […] In addition, the rapid inhibition of transcription, which occurs prior to apoptosis, may be evaluated over a short period of time. In the BlaM HeLa cell line used herein, the inhibition of transcription coupled with the half-life of ambient β-lactamase results in a one-day screening protocol.
To screen drug candidates for transcription inhibition activity, genetically modified HeLa cells developed by Aurora Biosciences were exposed to the products from the above parallel reactions. BlaM HeLa cells have been permanently transfected with a vector encoding the 29-kD plasmid encoded TEM-1 β-lactamase from E. coli. This enzyme is the product of the ampicillin resistance gene Amp^r, and is not normally expressed in mammalian cells.
BlaM HeLa cells were grown up from stock provided by Aurora Biosciences using standard cell culture techniques. This cell line was grown in 10 cm plates by using a modified Dulbecco's Modified Eagle Medium supplemented with 10% fetal bovine serum, 2 mM L-glutamine, 1.0 mM sodium pyruvate, and 0.1 mM non-essential amino acids. Bacterial growth was inhibited through intermittent exposure to […], and selection of the BlaM cells was maintained through the weekly administration of 800 μg/mL G418 (geneticin).
For plate reader-based experiments, HeLa cells were distributed into black, clear-bottom, 96-well plates (Corning). Nearly confluent 10 cm plates (60-70%) were trypsinized and distributed (100 μL) into the 96-well plates, and allowed to adhere and grow for approximately 18 h. Cells were then washed with 100 μL PBS and provided with fresh media prior to treatment. After treatment, the cells were exposed to the CCF2/AM dye for one hour, and measured for fluorescence on the fmax plate reader. The cellular response to platinum compounds was determined by taking the ratio of the absolute value of measured fluorescence at 530 nm (green) over the absolute value of measured fluorescence at 460 nm (blue). This response is corrected for the background of the microplate.
Concentration and time-dependent studies were conducted with cisplatin and other pure platinum compounds to determine the response of the cells to platinum chemotherapeutics. For the library screen, cells were exposed to 30 μM of platinum product from the reactions for 28 hours. 72 reactions were screened manually per day, with each compound measured in triplicate. […] After the exposure period the cells were worked up using the CCF2/AM dye protocol, and hits were determined by their response related to that of a cisplatin standard at the same concentration. Initial hits were then rescreened for dose dependent toxicity, over a range from 0 to 75 μM concentrations.

[2] = tested on: BlaM HeLa cells; test: Northern blotting of RNA from BlaM HeLa cells; type: cell-based, human; conditions: 30 μM, 12 hours, FIG. 5
Method: Two 10 cm plates of BlaM HeLa cells were grown to 60-70% confluence, and one treated with 30 μM cisplatin for twelve hours. After this treatment, RNA was extracted from the cells on each plate using an Ambion kit and quantified by UV-visible spectroscopy. The RNA was electrophoresed on an agarose-formaldehyde gel, transferred to a nylon membrane, and crosslinked with a Stratalinker UV device by using standard procedures. This blot was probed with ^32P labeled BlaM fragment from pcDNA-3 (Aurora Biosciences) and 7S RNA from pUC(Amp), and quantified by a Biorad phosphorimager apparatus.

Cc1cccnc1N.N.[Cl][Pt][Cl] [cis-ammine(2-amino-3-picoline)dichloroplatinum(II)]
response of independently synthesized compounds on the BlaM HeLa assay [1]: positive response

N.N.[Cl][Pt][Cl] [cisplatin, cis-diamminedichloroplatinum(II)]
response (ratio of fluorescence at 530 nm (green) over 460 nm (blue)) in initial screen ([1]; 30 μM, 28 hours, triplicate, response above 0.092 considered a hit): 0.092 | ratio of green to blue fluorescence with increasing concentration [1]: definite increase | time at which cell response peaked ([1]; time dependence, FIG. 8): approximately 20 hours | transcription of both the BlaM vector and control 7S RNA [2]: decrease in transcription

N.N.[Cl][Pt][Cl] [trans-DDP, trans-diamminedichloroplatinum(II)]
ratio of green to blue fluorescence with increasing concentration [1]: no increase | cell response over time ([1]; time dependence, any of the times measured, FIG. 8): no cell response

O=[N+]([O-])[O-].[Ag+] [silver nitrate]
transcription inhibition response ([1]; in media, same concentration as cisplatin (~30 μM), FIG. 9): does not give a transcription inhibition response

CC(C)N.CC(C)N.[Cl-].[Cl-].[Pt+2] [cis-(isopropylamine)2PtCl2]
response of independently synthesized compounds on the BlaM HeLa assay [1]: positive response

[Cl][Pt]([Cl])([NH]C1CCC1)[NH]C1CCC1 [bis-cyclobutylamine species, cis-(cyclobutylamine)2PtCl2]
response of independently synthesized compounds on the BlaM HeLa assay [1]: positive response

[NH2][Pt]([Cl])([Cl])[NH]C1CCC1 [ammine-cyclobutylamine complex, cis-ammine(cyclobutylamine)PtCl2]
response of independently synthesized compounds on the BlaM HeLa assay [1]: positive response
